Source: article PMC12395297, “Bidirectional Modification of a Galbulimima Alkaloid Identifies Selective Opioid Ligands” (ACS Central Science, 2025)
“Also recorded” adds a separate entry of the source.

Legend:
320 GPCRs = test: GPCRome PRESTO-Tango screen across 320 GPCRs (PDSP); format: cell-based
KOR [1] = target: T1, KOR (Homo sapiens, UniProt P41145); test: 35S-GTPγS binding in CHO-KOR cells; format: biochemical; conditions: read-out: KOR Emax
KOR [2] = target: T1, KOR; test: Inhibition of forskolin-stimulated cAMP accumulation (KOR agonism, HTRF); format: cell-based
KOR [3] = target: T1, KOR; test: KOR affinity (pKi) of pyridyl GB18 analogs, Figure 1b; format: binding; conditions: footnote a
MOR = MOR (Homo sapiens, UniProt P35372); design: method as in earlier paper of the authors (Woo, Shenvi, Nature 2022); conditions: antagonism; TANGO β-arrestin signaling, n = 3; ref earlier paper of the authors (Woo, Shenvi, Nature 2022); cited from earlier work
KOR [4] = target: T1, KOR; design: method as in earlier paper of the authors (Woo, Shenvi, Nature 2022); conditions: antagonism; TANGO β-arrestin signaling, n = 3; ref earlier paper of the authors (Woo, Shenvi, Nature 2022); cited from earlier work

T1 sequence (P41145 whole entry): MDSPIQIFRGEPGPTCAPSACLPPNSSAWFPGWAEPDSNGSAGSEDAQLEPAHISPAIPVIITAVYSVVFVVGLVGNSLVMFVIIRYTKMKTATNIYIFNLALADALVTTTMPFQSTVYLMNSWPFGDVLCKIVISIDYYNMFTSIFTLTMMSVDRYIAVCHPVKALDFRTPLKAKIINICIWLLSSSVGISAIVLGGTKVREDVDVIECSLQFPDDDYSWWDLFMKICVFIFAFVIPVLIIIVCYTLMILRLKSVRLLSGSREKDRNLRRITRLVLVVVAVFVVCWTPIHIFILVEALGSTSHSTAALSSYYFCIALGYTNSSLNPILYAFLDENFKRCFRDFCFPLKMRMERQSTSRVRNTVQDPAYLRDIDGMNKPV
Chain of MOR (P35372 whole entry): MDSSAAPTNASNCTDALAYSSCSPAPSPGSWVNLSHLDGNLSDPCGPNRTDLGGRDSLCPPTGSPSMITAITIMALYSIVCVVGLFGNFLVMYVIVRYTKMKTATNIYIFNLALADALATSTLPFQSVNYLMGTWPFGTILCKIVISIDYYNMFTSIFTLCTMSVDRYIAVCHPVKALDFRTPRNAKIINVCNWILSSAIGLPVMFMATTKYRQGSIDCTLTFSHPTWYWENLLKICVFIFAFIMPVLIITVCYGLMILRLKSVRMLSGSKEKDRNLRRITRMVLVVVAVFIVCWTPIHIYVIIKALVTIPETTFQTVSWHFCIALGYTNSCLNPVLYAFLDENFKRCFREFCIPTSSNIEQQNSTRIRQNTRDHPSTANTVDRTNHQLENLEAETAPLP

Molecule | GPCR selectivity in PRESTO-Tango agonist screen (320 GPCRs) | Emax (KOR [1]) | EC50 (KOR [2]; inhibition of forskolin-stimulated cAMP accumulation, Figure 4 and text) | Emax (KOR [2]; read-out: KOR Emax) | Ki (KOR [3]) | MOR pIC50 (MOR) | KOR pIC50 (KOR [4])
COC(=O)C1=CC23CCCCC2C2CC(c4cccc(C)n4)C(C)(O3)C12 (stereo not shown) [compound 2] | highly selective partial agonist; also recorded: agonized KOR with high selectivity among 320 GPCRs | 34% | 0.476 µM | 56% | 0.0295 µM | – | –
GB18 | – | – | – | – | – | 8 | 8
